Measured values taken from US9505727B2 (THE JOHNS HOPKINS UNIVERSITY, priority 2013, dated 2016).

Assays:
hNav1.6 = target: T1, hNav1.6 (Homo sapiens, UniProt Q9UQD0); assay: Two-electrode voltage-clamp of hNav1.6 (+β1) in Xenopus oocytes; type: cell-based; settings: for Inactivation (V1/2) hNav1.6 / Activation (V1/2) hNav1.6: 100 μM drug; for Inactivation (V1/2) hNav1.6: steady-state inactivation; for Activation (V1/2) hNav1.6: ≤1% DMSO
T1 construct: host or cells: Xenopus oocytes (cRNA injection)

hNav1.1 = target: T2, hNav1.1 (Homo sapiens, UniProt P35498); assay: Two-electrode voltage-clamp of hNav1.1 (+β1) in Xenopus oocytes; type: cell-based; settings: for Effect on hNav1.1 opening (G/Gmax), in words / Effect on hNav1.1 steady-state inactivation, in words / Effect on hNav1.1 persistent current / Depolarizing shift in hNav1.1 channel activation voltage: 100 μM; for Effect on hNav1.1 opening (G/Gmax), in words / Depolarizing shift in hNav1.1 channel activation voltage: versus DMSO; for Inactivation (V1/2) hNav1.1 / Activation (V1/2) hNav1.1: 100 μM drug; for Inactivation (V1/2) hNav1.1: steady-state inactivation; for Activation (V1/2) hNav1.1: ≤1% DMSO, oocytes incubated at least one hour; for Effect on hNav1.1 persistent current: end of 50 ms test pulse
T2 construct: host or cells: Xenopus oocytes (cRNA injection)

α1/β2/γ2 GABAA receptor = target: T3, α1/β2/γ2 GABAA receptor (Homo sapiens, UniProt P14867+P18507+P47870); assay: GABAA receptor activation in oocytes held at −70 mV; type: cell-based
T3 construct: expressed in transfected cells; host or cells: oocytes

[1] = system: 6 Hz psychomotor seizures in male Crl:CF1 mice; assay: 6 Hz psychomotor seizure induction; type: in vivo, mouse; settings: 17 mA
Procedure: (§1) Animal husbandry and drug administration. Male Crl:CF1 mice (10-12 weeks old, Charles River) were housed under a 12 hour light-dark cycle with free access to food and water and all experiments were carried out between 10 am and 4 pm. 1-[phenyl-methyl]-1H-1,2,3-triazole-4-carboxamide-5-methyl (Compound B) (Sigma Aldrich) was suspended in a 40% solution of cyclodextrin (Sigma Aldrich) in sterile saline (0.9%) and 15 minutes prior to each seizure induction paradigm, 75 mg/kg of compound B was administered via intraperitoneal injection (ip) injection. Vehicle treated animals were similarly administrated 40% cyclodextrin and served as the controls for each experiment. The Emory University Institutional Animal Care and Use Committee approved all experimental protocols involving mice.
6 Hz psychomotor seizure induction. Topical anesthetic (0.5% tetracaine hydrochloride ophthalmic solution) was applied to the cornea 30 minutes before testing. Fifteen minutes prior to seizure induction, mice were administrated vehicle or compound B (n=12 per group). Each mouse was manually restrained and corneal stimulation (0.2 ms pulse, 6 Hz, 3 s) was performed at a current intensity of 17 mA (ECT Unit 57800; Ugo Basile, Comerio Italy). […]

[2] = system: picrotoxin-induced seizures in male Crl:CF1 mice; assay: Picrotoxin seizure induction; type: in vivo, mouse; settings: 75 mg/kg ip
Procedure: as §1
Seizure induction paradigms and analyses. Picrotoxin seizure induction—15 minutes prior to i.p. injection of picrotoxin (10 mg/kg, Sigma Aldrich), mice were administered vehicle or compound B (n=12 per group). Latencies to the first myoclonic jerk, forelimb clonus, and generalized tonic-clonic seizure were compared between compound B and vehicle-treated mice. The myoclonic jerk is characterized by a sudden jerk of the upper body whereas forelimb clonus involves rapid movement of the forelimbs for at least 5 s. Finally, the generalized tonic-clonic seizure involves the loss of postural control with rapid movement of the limbs for at least 5 s.
Statistical analysis. A Student's t-test was used to identify statistically significant differences in latencies between vehicle- and compound B-treated groups for each seizure phenotype following administration of flurothyl and picrotoxin. […] All data are presented as the mean±s.e.m.; p values <0.05 were considered significant.

hNav1.3 = target: T4, hNav1.3 (Homo sapiens, UniProt Q9NY46); assay: Two-electrode voltage-clamp of hNav1.3 (+β1) in Xenopus oocytes; type: cell-based; settings: for Inactivation (V1/2) hNav1.3 / Activation (V1/2) hNav1.3: 100 μM drug; for Inactivation (V1/2) hNav1.3: steady-state inactivation; for Activation (V1/2) hNav1.3: ≤1% DMSO; for Effect on hNav1.3 opening/gating, in words: 100 μM, versus DMSO
T4 construct: host or cells: Xenopus oocytes (cRNA injection)

[3] = system: flurothyl-induced seizures in male Crl:CF1 mice; assay: Flurothyl seizure induction; type: in vivo, mouse; settings: 75 mg/kg ip, p=0.6
Procedure: as §1
Flurothyl Seizure induction. Latencies to flurothyl-induced seizures were determined as previously described (Neurobiol Dis 49C, 211-220 (2012)). Briefly, flurothyl (2,2,2-trifluroethylether; Sigma Aldrich) was dispensed at a rate of 20 μl/minute into a Plexiglas chamber and latencies to three behavioral phenotypes were compared between vehicle-treated and compound B-treated (75 mg/kg) mice (n=12 per group): 1) the first myoclonic jerk, 2) a generalized tonic-clonic seizure, and 3) a generalized tonic-clonic seizure with tonic extension. […]

hNav1.2 = target: T5, hNav1.2 (Homo sapiens, UniProt Q99250); assay: Two-electrode voltage-clamp of hNav1.2 (+β1) in Xenopus oocytes; type: cell-based; settings: for Inactivation (V1/2) hNav1.2 / Activation (V1/2) hNav1.2: 100 μM drug; for Inactivation (V1/2) hNav1.2: steady-state inactivation; for Activation (V1/2) hNav1.2: ≤1% DMSO; for Effect on hNav1.2 opening/gating, in words: 100 μM, versus DMSO
T5 construct: host or cells: Xenopus oocytes (cRNA injection)

Nav1.7 = Nav1.7 (Homo sapiens, UniProt Q15858); settings: reported by other researchers; cited from earlier work
Chain of Nav1.7 (Q15858 whole entry): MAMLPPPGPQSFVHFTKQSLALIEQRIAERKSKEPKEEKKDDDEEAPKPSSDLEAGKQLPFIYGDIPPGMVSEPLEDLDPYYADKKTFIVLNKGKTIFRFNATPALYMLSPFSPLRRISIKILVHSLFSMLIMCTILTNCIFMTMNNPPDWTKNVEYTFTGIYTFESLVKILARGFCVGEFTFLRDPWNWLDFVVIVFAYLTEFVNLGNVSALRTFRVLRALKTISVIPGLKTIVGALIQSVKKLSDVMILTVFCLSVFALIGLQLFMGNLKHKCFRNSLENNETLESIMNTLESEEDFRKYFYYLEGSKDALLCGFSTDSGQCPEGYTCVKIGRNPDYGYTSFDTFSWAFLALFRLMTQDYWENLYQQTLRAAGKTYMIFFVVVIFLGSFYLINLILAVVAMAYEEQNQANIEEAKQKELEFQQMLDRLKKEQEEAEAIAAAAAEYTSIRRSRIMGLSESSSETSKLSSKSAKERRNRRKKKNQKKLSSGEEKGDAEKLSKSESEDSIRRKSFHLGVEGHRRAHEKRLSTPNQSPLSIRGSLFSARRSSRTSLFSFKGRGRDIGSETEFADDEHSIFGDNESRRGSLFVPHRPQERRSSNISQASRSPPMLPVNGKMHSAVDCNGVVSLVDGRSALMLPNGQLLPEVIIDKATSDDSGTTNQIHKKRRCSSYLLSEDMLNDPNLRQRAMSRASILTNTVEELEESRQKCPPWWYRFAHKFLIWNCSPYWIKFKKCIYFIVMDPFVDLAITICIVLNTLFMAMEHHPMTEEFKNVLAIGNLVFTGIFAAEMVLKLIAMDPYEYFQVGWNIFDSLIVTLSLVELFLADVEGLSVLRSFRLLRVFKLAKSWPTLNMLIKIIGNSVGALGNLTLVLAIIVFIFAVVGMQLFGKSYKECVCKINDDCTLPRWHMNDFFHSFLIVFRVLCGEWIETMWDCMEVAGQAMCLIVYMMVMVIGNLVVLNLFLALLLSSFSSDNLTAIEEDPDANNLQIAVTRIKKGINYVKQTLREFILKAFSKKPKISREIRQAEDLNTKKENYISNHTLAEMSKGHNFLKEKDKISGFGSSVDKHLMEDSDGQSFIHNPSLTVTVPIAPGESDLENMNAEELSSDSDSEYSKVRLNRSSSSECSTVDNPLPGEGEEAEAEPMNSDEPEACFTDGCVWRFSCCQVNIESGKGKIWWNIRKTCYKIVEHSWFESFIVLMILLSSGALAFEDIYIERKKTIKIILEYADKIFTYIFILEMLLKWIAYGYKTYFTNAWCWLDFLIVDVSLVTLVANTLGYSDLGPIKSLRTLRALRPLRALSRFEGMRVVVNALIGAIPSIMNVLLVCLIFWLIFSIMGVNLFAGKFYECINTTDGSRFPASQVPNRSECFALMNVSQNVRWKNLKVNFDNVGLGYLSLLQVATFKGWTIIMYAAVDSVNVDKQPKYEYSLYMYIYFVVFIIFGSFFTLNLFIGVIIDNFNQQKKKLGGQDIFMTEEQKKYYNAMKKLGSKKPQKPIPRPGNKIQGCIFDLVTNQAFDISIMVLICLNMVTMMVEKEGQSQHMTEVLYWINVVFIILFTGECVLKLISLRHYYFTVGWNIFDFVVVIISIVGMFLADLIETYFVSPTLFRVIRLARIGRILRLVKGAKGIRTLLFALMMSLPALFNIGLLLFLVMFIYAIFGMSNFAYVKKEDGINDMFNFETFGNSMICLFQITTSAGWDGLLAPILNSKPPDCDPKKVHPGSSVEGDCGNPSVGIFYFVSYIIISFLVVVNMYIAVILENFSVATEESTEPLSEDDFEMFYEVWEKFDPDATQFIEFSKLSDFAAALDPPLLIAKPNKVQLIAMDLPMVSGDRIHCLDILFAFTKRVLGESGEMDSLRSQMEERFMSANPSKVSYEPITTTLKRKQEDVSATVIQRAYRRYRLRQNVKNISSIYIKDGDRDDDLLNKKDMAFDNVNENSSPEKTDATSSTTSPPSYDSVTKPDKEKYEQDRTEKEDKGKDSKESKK

T3 sequence (P14867 28-456): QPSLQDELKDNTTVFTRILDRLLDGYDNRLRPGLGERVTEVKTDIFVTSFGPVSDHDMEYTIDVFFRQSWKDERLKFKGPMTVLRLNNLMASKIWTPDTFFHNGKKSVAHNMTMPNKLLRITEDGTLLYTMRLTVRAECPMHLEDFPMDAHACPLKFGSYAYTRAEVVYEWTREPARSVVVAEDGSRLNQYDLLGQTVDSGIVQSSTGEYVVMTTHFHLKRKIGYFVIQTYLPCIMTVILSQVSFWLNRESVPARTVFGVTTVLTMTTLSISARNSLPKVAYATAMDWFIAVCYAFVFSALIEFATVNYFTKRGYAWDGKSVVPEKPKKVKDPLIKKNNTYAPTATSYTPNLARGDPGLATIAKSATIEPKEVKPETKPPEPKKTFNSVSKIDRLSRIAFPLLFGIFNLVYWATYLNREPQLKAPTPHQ
T3 sequence (P47870 25-512 limits assumed): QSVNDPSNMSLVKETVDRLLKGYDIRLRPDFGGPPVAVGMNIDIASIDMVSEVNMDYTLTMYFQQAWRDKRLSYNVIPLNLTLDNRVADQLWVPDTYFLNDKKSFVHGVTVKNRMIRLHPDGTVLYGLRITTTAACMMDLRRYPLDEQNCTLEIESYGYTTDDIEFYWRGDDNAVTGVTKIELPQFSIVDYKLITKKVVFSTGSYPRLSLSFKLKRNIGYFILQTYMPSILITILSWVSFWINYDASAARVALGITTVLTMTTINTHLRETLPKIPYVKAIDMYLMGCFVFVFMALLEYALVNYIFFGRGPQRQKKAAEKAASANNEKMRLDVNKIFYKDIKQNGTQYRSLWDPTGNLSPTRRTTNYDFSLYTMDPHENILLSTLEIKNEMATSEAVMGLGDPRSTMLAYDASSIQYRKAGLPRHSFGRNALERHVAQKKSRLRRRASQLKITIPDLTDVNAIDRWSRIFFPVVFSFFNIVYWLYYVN
T3 sequence (P18507 40-475): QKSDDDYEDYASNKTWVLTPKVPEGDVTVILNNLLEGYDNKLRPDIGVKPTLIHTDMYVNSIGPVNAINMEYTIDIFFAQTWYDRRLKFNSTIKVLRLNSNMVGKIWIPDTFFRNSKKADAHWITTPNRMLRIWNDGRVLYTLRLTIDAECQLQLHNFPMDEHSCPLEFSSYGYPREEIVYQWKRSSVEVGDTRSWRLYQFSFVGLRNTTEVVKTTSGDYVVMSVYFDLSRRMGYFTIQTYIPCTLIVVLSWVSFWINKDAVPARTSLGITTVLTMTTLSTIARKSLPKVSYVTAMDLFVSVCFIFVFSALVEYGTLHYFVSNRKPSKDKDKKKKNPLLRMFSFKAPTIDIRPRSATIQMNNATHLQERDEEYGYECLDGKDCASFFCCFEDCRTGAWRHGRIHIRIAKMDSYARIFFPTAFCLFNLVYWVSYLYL

**Q.** What does the source list for `COC(=O)c1nnn(Cc2c(F)cccc2F)c1C` [Compound L, 1-[(2,6-difluorophenyl)methyl]-1H-1,2,3-triazole-carboxymethyl-5-methyl]?
**A.** Shift of hNav1.6 steady-state inactivation / channel availability midpoint (hNav1.6; 100 μM, versus DMSO): ~−20 mV; Effect on hNav1.1 opening (G/Gmax), in words (hNav1.1): much smaller compared to compound B

**Q.** Which results are given for `Cc1c(C(N)=O)nnn1Cc1ccccc1` [Compound B, 1-[phenyl-methyl]-1H-1,2,3-Triazole-4-carboxamide-5-methyl]?
**A.** Activation of α1/β2/γ2 GABAA receptor (α1/β2/γ2 GABAA receptor; 100 μM): do not activate; Seizure severity (modified Racine scale) versus vehicle, 6 Hz ([1]; 75 mg/kg ip): dramatically less severe; Reduction in the number of mice exhibiting seizures, 6 Hz ([1]; versus vehicle): 63%; Frequency of behavioral seizures versus vehicle, picrotoxin [2]: no difference; Average latency to forelimb clonus (FC) versus vehicle, picrotoxin ([2]; p=0.3): no statistically significant differences; Average latency to first myoclonic jerk (MJ) versus vehicle, picrotoxin ([2]; p=0.4): no statistically significant differences; Inactivation (V1/2) hNav1.3 (hNav1.3): −50.0 ± 0.8 mV; Activation (V1/2) hNav1.3 (hNav1.3): −25.8 ± 1.4 mV; Effect on hNav1.3 opening/gating, in words (hNav1.3): unaltered; Average latency to MJ versus vehicle, flurothyl [3]: comparable; Inactivation (V1/2) hNav1.2 (hNav1.2): −53.6 ± 1.2 mV; Activation (V1/2) hNav1.2 (hNav1.2): −23.6 ± 1.1 mV; Effect on hNav1.2 opening/gating, in words (hNav1.2): unaltered; Inactivation (V1/2) hNav1.6 (hNav1.6): −62.6 ± 0.7 mV; Activation (V1/2) hNav1.6 (hNav1.6): −23.8 ± 1.9 mV; Effect on hNav1.6 opening/gating, in words (hNav1.6; 100 μM, versus DMSO): unaltered; Effect on hNav1.1 steady-state inactivation, in words (hNav1.1): neither of these compounds influences; Inactivation (V1/2) hNav1.1 (hNav1.1): −49.4 ± 0.3 mV^; Activation (V1/2) hNav1.1 (hNav1.1): −27.4 ± 1.0 mV**; Effect on hNav1.1 persistent current (hNav1.1): neither of these compounds influences; Effect on hNav1.1 persistent current (hNav1.1; listed as compound B): do not affect; Depolarizing shift in hNav1.1 channel activation voltage (hNav1.1): ~+11 mV; Effect on hNav1.1 opening (G/Gmax), in words (hNav1.1): clearly inhibit

**Q.** With “1-[(2,6-difluorophenyl)methyl]-1H-1,2,3-triazole-carboxymethyl-5-methyl [Compound L]” as the compound, how does the “Effect on hNav1.3 opening/gating, in words” value (hNav1.3) read?
**A.** Its value is “not significant”.

**Q.** And the “Effect on hNav1.2 opening/gating, in words” value (hNav1.2)?
**A.** Its value is “not significant”.

**Q.** What about the “Effect on hNav1.6 steady-state inactivation, in words” value (hNav1.6; 100 μM) of the same compound?
**A.** The value was “dramatically affect”.

**Q.** What about the “Effect on hNav1.1 opening (G/Gmax), in words” value (from here on “Effect on hNav1.1 opening”) (hNav1.1) of the same compound?
**A.** Its value is “only slightly inhibits”.

**Q.** What does the source list for `CCc1c(C(N)=O)nnn1Cc1ccccc1` [Compound F, 1-(phenylmethyl)-1H-1,2,3-triazole-4-carboxamide-5-ethyl]?
**A.** Effect on hNav1.3 opening/gating, in words (hNav1.3): not significant; Effect on hNav1.2 opening/gating, in words (hNav1.2): not significant; Effect on hNav1.6 opening/gating, in words (hNav1.6; 100 μM, versus DMSO): not significant; Effect on hNav1.1 steady-state inactivation, in words (hNav1.1): does not influence; Effect on hNav1.1 persistent current (hNav1.1): does not influence; Depolarizing shift in hNav1.1 channel activation voltage (hNav1.1): ~+12 mV; Effect on hNav1.1 opening (G/Gmax), in words (hNav1.1): inhibits hNav1.1 opening

**Q.** Which results are given for `NC(=O)c1nnn(Cc2ccc(F)cc2)c1N` [Compound D, 1-[(4-fluorophenyl)methyl]-1H-1,2,3-Triazole-4-carboxamide-5-amine]?
**A.** Inactivation (V1/2) hNav1.1 (hNav1.1): −49.8 ± 1.6 mV; Activation (V1/2) hNav1.1 (hNav1.1): −32.5 ± 2.3 mV; Effect on hNav1.1 opening (G/Gmax), in words (hNav1.1): not significant

**Q.** For `NCc1cc(=O)[nH]o1` [muscimol], which “Activation of α1/β2/γ2 GABAA receptor” value (α1/β2/γ2 GABAA receptor; 5 μM) is on record?
**A.** Its value is “activates”.

**Q.** What does the source list for `NC(=O)c1nnn(Cc2cccc(F)c2)c1N` [Compound A, 1-[(3-fluorophenyl)methyl]-1H-1,2,3-Triazole-4-carboxamide-5-amine]?
**A.** Effect on hNav1.1 steady-state inactivation, in words (hNav1.1): neither of these compounds influences; Inactivation (V1/2) hNav1.1 (hNav1.1): −50.5 ± 1.2 mV^; Activation (V1/2) hNav1.1 (hNav1.1): −30.8 ± 1.0 mV**; Effect on hNav1.1 persistent current (hNav1.1): neither of these compounds influences; Effect on hNav1.1 opening (G/Gmax), in words (hNav1.1): clearly inhibit

**Q.** For `OCc1cn(Cc2cccc(F)c2)nn1` [Compound C, 1-[(3-fluorophenyl)methyl]-1H-1,2,3-Triazole-4-hydroxymethyl], which “Inactivation (V1/2) hNav1.1” value (hNav1.1) is on record?
**A.** The value was −49.2 ± 0.6 mV.

**Q.** And the “Activation (V1/2) hNav1.1” value (hNav1.1)?
**A.** Its value is −38.4 ± 1.3 mV.

**Q.** What about the “Effect on hNav1.1 opening” value (hNav1.1) of the same compound?
**A.** The value was “no longer affects”.

**Q.** For `NC(=O)c1cn(Cc2c(F)cccc2F)nn1` [Rufinamide, 1-[(2,6-difluorophenyl)methyl]-1H-1,2,3-Triazole-4-carboxamide, reference compound], which “Activation of α1/β2/γ2 GABAA receptor” value (α1/β2/γ2 GABAA receptor; 100 μM) is on record?
**A.** Its value is “do not activate”.

**Q.** And the “Inactivation (V1/2) hNav1.3” value (hNav1.3)?
**A.** Its value is −52.6 ± 1.6 mV.

**Q.** And the “Activation (V1/2) hNav1.3” value (hNav1.3)?
**A.** The value was −24.5 ± 2.4 mV.

**Q.** And the “Effect on hNav1.3 opening/gating, in words” value (hNav1.3)?
**A.** The value was “not inhibited”.

**Q.** And the “Effect on Nav1.7 inactivated state” value (Nav1.7)?
**A.** Its value is “stabilizes the inactivated state”.

**Q.** What about the “Inactivation (V1/2) hNav1.2” value (hNav1.2) of the same compound?
**A.** The value was −57.7 ± 0.5 mV.

**Q.** What about the “Activation (V1/2) hNav1.2” value (hNav1.2) of the same compound?
**A.** Its value is −29.5 ± 1.2 mV.

**Q.** What about the “Effect on hNav1.2 opening/gating, in words” value (hNav1.2) of the same compound?
**A.** Its value is “not inhibited”.

**Q.** And the “Inactivation (V1/2) hNav1.6” value (hNav1.6)?
**A.** Its value is −60.0 ± 0.7 mV**.

**Q.** And the “Activation (V1/2) hNav1.6” value (hNav1.6)?
**A.** The value was −28.1 ± 0.8 mV.

**Q.** And the “Effect on hNav1.6 opening/gating, in words” value (hNav1.6; 100 μM, versus DMSO)?
**A.** The value was “not inhibited”.

**Q.** And the “Effect on hNav1.1 steady-state inactivation, in words” value (hNav1.1)?
**A.** The value was “not influenced”.

**Q.** And the “Inactivation (V1/2) hNav1.1” value (hNav1.1)?
**A.** The value was −47.8 ± 1.6 mV.

**Q.** What about the “Activation (V1/2) hNav1.1” value (hNav1.1) of the same compound?
**A.** Its value is −30.6 ± 0.9 mV**.

**Q.** What about the “Effect on hNav1.1 persistent current” value (hNav1.1) of the same compound?
**A.** Its value is “do not affect”.

**Q.** What about the “Effect on hNav1.1 opening” value (hNav1.1) of the same compound?
**A.** Its value is “dramatic depolarizing shift”.
